Experimental findings from US20120219568A1, “EPIDITHIODIOXO[…] USES THEREOF IN TREATING CANCER” (priority 2011, published 2012) are described below.

In general, pIC50 refers to the negative decadic logarithm of the IC50, by convention in mol/L.

One experiment relates to Bcap-37. Description: MTT growth inhibition, Bcap-37. It counts as cell-based. Particulars: Homo sapiens, Bcap37, Mammary Carcinoma, MTT assay. On the procedure: (§1) For cell viability assay, cells were seeded in wells of 96-well plates for 2 days and then treated with different concentrations of mushroom extract fractions or purified verticillin A for 2 days. The cells were then incubated with MTT (3-(4,5-dimethylthiazol-2-yl)-2,5-diphenyltetrazolium bromide) using the MTT assay kit (ATCC, Manassas, Va.) according to the manufacturer's instructions.
(§2) To determine whether verticillin A inhibits other types of tumor cell growth, Mammary carcinoma (Bcap-37 and MCF-7), heptocarcinoma (HepG2), cervical (HeLa), liver (SMMC-7721), lung (SPC-A1) cancer cells and T cell leukemia (Jurkat) were cultured in the presence of different concentrations of verticillin A and examined for the efforts of verticillin A on the growth rate of these tumor cells in vitro.
In general terms: Tetrazolium dyes change colour on reduction, which living cells bring about.

A further experiment deals with A-CDase. Briefly: A-CDase protein level, Western blot. The note with it: after verticillin A treatment. The experiment is classed as cell-based, human. On the procedure:
Tumor cells were lysed in lysis buffer containing 20 mM HEPES, pH 7.4, 20 mM NaCl, 10% glycerol, 1% Triton X-100, and a protease inhibitor cocktail (Calbiochem, La Jolla, Calif.). Cellular proteins were separated by 12% or 4-20% SDS-PAGE gradient gels, transferred to Immobilon-P membranes (Millipore, Bedford, Mass.) or nitrocellulose (Bio-Rad, Hercules, Calif.), and probed with the following primary antibodies: anti-FLIP (Cell Sinnaling, Danvers, Mass.) at 1:250; anti-survivin (Santa Cruz Biotech) at 1:100; anti-cIAP1 (cell signaling) at 1:250; anti-xIAP (cell Signaling) at 1:500; anti-Bad (Cell Signaling) at 1:1000; anti-Bax (Cell Signaling) at 1:2000; anti-Mcl-1 (Santa Cruz) at 1:100); anti-A-CDase (BD Biosciences) at 1:1000; anti-CytC (BD Biosciences) at 1:1000; and β-actin (Sigma, St Louis, Mo.) at 1:8000. The blots were then washed and incubated with horseradish peroxidase-conjugated anti-goat (Santa Cruz Biotech), anti-mouse or rabbit (Amersham-Pharmacia, Piscataway, N.J.) IgGs. Blots were detected using the ECL Plus Western detection kit (Amersham Pharmacia Biotech).
To elucidate the molecular mechanisms underlying verticillin A sensitization of tumor cells to TRAIL-mediated apoptosis, the protein levels of genes known to function in the mitochondrion-mediated apoptosis pathway were analyzed. […]

The subject of a further experiment is TET1. Description: TET1 expression, RT-PCR. It counts as cell-based, human. Particulars: colon carcinoma cells, dose-dependent. Here is the method:
FIG. 11A is an acrylamide gel showing that LS411N cells were treated with Verticillin A at the indicated concentrations for 24 h and analyzed for TET1, TET2 and TET3 level by RT-PCR.
TET1 is an enzyme with very recently identified function in converting 5-methylcytosine (5mC) to 5-hydroxylmethylcytosine (5hmC), and eventually to unmodified Cytosine to reverse DNA methylation (Veron N, Peters A H. Epigenetics: Tet proteins in the limelight. Nature 2011; 473:293-4; Ito et al. Tet proteins can convert 5-methylcytosine to 5-formylcytosine and 5-carboxylcytosine. Science 2011; 333:1300-3; Guo et al. Hydroxylation of 5-methylcytosine by TET1 promotes active DNA demethylation in the adult brain. Cell 2011; 145:423-34). […] Thus, Verticillin A is a small molecule TET1 activator. Verticillin A appears to be the first reported small molecule TET1 activator.

Experiment [1] deals with SW620 cells. Description: SW620 growth with anticancer drugs, MTT assay. The experiment is classed as cell-based, human. Particulars: Verticillin A pretreatment, then Etoposide, Cisplatin, 5-FU or Doxorubicin. Here is the method: as §1
Etoposie, Cisplatin, 5-FU and Doxorubicin are commonly used cancer drugs that suppress tumor cell growth through their cytotoxicity. High cytotoxicity is often associated with high dose of their drugs. Furthermore, tumor cells often develop resistance to these cytotoxic drugs. To determine whether Verticillin A can increase the efficacy of these drugs and overcome drug resistance, the effectiveness of Verticillin A combined with these 4 drugs in suppression of tumor cell growth was tested in vitro. SW620 cell sensitivity to these drugs was first measured. SW620 cells are resistant to Etoposide but sensitive to 5-FU. […] SW620 cells were next pretreated with Verticillin A, followed by treatment with Etoposide (1 μg/ml), Cisplatin (1 μg/ml), 5-FU ([…]) and Doxorubicin (0.01 μg/ml), respectively.

Experiment [2] concerns SW620 cells. Description: Sensitization to FasL-induced apoptosis. It counts as cell-based, human. The note with it: SW620, verticillin A pre-treatment then recombinant FasL. On the procedure: Because the Fas-mediated apoptosis and TRAIL-induced apoptosis share similar signaling pathways, it was next tested whether Verticillin A also sensitizes tumor cells to FasL-induced apoptosis. SW620 cells were treated with verticillin A, followed by treatment with recombinant FasL.

The test system of another experiment is SMMC-7721. Briefly: MTT growth inhibition, SMMC-7721. The experiment is classed as cell-based. The note with it: Homo sapiens, Hepatoma, MTT assay. Here is the method:
as §1, §2

Experiment [3] concerns sarcoma (MC-WST-724), and mammary carcinoma (MCF-7). Briefly: TRAIL co-treatment apoptosis in other tumor cell types. It counts as cell-based. Particulars: co-treatment with verticillin A and TRAIL. On the procedure:
Cells were seeded in wells of 96-well plates for 2 days and then treated with different concentrations of mushroom extract fractions or purified verticillin A for 2 days. The cells were stained with propidium iodide (PI) (Trevigen, Gaithersburg, Md.) or PI plus annexin V-Alex Fluor 647 (Biolegend, San Diego, Calif.) and analyzed by flow cytometry.
The sensitization effects of verticillin A was examined in other types of tumor cells.

The next experiment relates to MCF-7. Briefly: MTT growth inhibition, MCF-7. The experiment is classed as cell-based. The note with it: Homo sapiens, MCF7, Mammary Carcinoma, MTT assay. Here is the method: as §1, §2
In experiment [4] the test system is BNIP3, IRF8, Neurog1, p15ink4b, RUNX3. Briefly: Expression of genes with methylated promoters. It counts as cell-based, human. Particulars: SW620, verticillin A 0-50 nM. Here is the method: To determine whether verticillin A inhibits DNA methylation in other gene promoters, 4 other genes (IRF8, Neurog1, p15ink4b, RUNX3) with known promoter DNA methylation in human colon carcinoma cells were selected. SW620 cells were treated with AzadC (0-1.0 μM) and verticillin A (0-50 nM), respectively, and analyzed for the expression of BNIP3 and these 4 genes.

Another experiment deals with SPC-A1. Description: MTT growth inhibition, SPC-A1. The note with it: SPCA1, Lung Carcinoma, MTT assay. It counts as cell-based. On the procedure: as §1, §2
Experiment [5] relates to multiple types of tumor cell lines. Description: Growth inhibition of multiple types of tumor cell lines. The experiment is classed as cell-based. On the procedure:
as §1, §2

pIC50: −log10 of the molar value. Where only a bound is given, the exact number is not on record here.

Turning to `CN1C(=O)[C@]23SS[C@]1(C)C(=O)N2C1Nc2ccccc2[C@@]1(C12c4ccccc4NC1N1C(=O)[C@@]4(C)SS[C@]1(C(=O)N4C)[C@H]2O)[C@@H]3O` (stereo partly drawn) [Verticillin A], the pIC50 was 6.92 in the experiment with Bcap-37; 7.10 in the experiment with SMMC-7721; 7.19 with MCF-7; 7.52 in the experiment on SPC-A1; over 6.70 in experiment [5] (span over the tumor cell lines of Table 1, read-out: IC50 for multiple types of cancer cells). Besides, in the experiment on A-CDase, the A-CDase expression level result is given as “decreased after verticillin A treatment at a dose-dependent manner”. In the experiment on TET1, the TET1 expression entry is “up-regulates TET1 expression”. In addition, the “tumor growth inhibitory effect of the drugs combined with Verticillin A” value in the experiment with SW620 cells [1] is on record as “significantly increased the tumor growth inhibitory effects”. The “sensitization to FasL-induced apoptosis” value in the experiment on SW620 cells [2] is listed as “significantly increases tumor cells to FasL-induced apoptosis”. In addition, the “apoptosis rate versus single agent alone” value in experiment [3] is reported as “significantly increased the apoptosis rate”. In experiment [4], the “expression levels of BNIP3, IRF8, Neurog1, p15ink4b, RUNX3” value was “dramatically increased the expression levels of BNIP3 and these 4 genes”. Moreover, the “growth of tumor cells in vitro” value in experiment [5] (Bcap-37, MCF-7, HepG2, HeLa, SMMC-7721, SPC-A1, Jurkat) is “significantly inhibited the growth of all these tumor cells”.
